The values below come from patent US12031087B2, “Oxygenated solvents for improved production of oil and gas” (Board of Regents, The University of Texas System, priority 2019, dated 2024).

The series in a line: Viscosity of crude oil/3p mixtures (in-line viscometer). The series is classed as physicochemical. Conditions: 347 K. Here is the method:
Density and viscosity experiments. […] The system consists mainly of automated pumps, a sample accumulator, an in-line fluid densitometer, an in-line viscometer, an oven, and an effluent accumulator. The pump (Teledyne ISCO 100DX) maintained the system pressure automatically by water.
In the density measuring cell (Anton Paar DMA-HPM), fluid's density is measured in a U-shaped tube, in the range from 0 to 3000 kg/m^3. The instrument precision of the density meter is ±1 kg/m^3. Anton Paar DMA-HPM uses the method of oscillating U-tube for its density measurement, in which the sample's density is calculated from the sample's period of oscillation. The in-line viscometer (ViscoPro 2100) measures the viscosity of a fluid in the range from 0.2 to 2 cp. The instrument precision of the viscometer is ±0.02 cp and repeatability is ±0.5% of the reading. During the viscosity measurement, the magnetic piston is surrounded by the fluid sample and oscillates under magnetic force. The sample's viscosity is calculated from the time required for the piston to complete a two-way cycle. The viscometer and density meter were placed in a Despatch oven (model LAC2-18-8). Light-emitting diode screens that display measured data from the fluid densitometer and viscometer were connected outside the oven. The absolute pressure of the system was measured with a pressure gauge (Omega PX459-2.5KGI-EH).
Densities and viscosities were measured for the following mixtures of crude oil and 3p: 81.4 wt % crude oil and 18.6 wt % 3p (33 mol % 3p), 59.0 wt % crude oil and 41.0 wt % 3p (60 mol % 3p), and 35.1 wt % crude oil and 64.9 wt % 3p (80 mol % 3p). Each mixture was mixed in a glass bottle with a magnetic mixer before placing it in the accumulator.
Before each measurement, the system was cleaned thoroughly with toluene. Then, the system was dried by air and evacuated. Next, the fluid mixture was pumped into the system from the accumulator. Then, the temperature in the oven was increased to 347 K. When the temperature in the oven was stable, the mixture was measured for viscosities and densities at different pressures, ranging from 101 kPa to 10342 kPa.

In the case of `CCC(=O)CC` [3-pentanone], the “μo^−1/2 of 3p-diluted oil” value (33 mol % or 18.6 wt % 3p, atmospheric pressure) stood at 1.2383 cp^−1/2. Moreover, the Viscosity runs as follows: (crude oil with 18.6 wt % (33 mol %) 3-pentanone, 134.38 kPa) 0.6522 cp; (crude oil with 18.6 wt % (33 mol %) 3-pentanone, 1381.57 kPa) 0.6534 cp; (crude oil with 18.6 wt % (33 mol %) 3-pentanone, 3448.00 kPa) 0.6533 cp; (crude oil with 18.6 wt % (33 mol %) 3-pentanone, 6887.59 kPa) 0.6545 cp; (crude oil with 18.6 wt % (33 mol %) 3-pentanone, 10336.00 kPa) 0.6561 cp; (crude oil with 41.0 wt % (60 mol %) 3-pentanone, 157.89 kPa) 0.4609 cp. For the same molecule, the Viscosity was found to be 0.4604 cp (crude oil with 41.0 wt % (60 mol %) 3-pentanone, 1375.71 kPa); 0.4596 cp (crude oil with 41.0 wt % (60 mol %) 3-pentanone, 3448.00 kPa); 0.4613 cp (crude oil with 41.0 wt % (60 mol %) 3-pentanone, 6889.10 kPa); 0.4592 cp (crude oil with 41.0 wt % (60 mol %) 3-pentanone, 10337.52 kPa); 0.3267 cp (crude oil with 64.9 wt % (80 mol %) 3-pentanone, 135.9 kPa); 0.3264 cp (crude oil with 64.9 wt % (80 mol %) 3-pentanone, 1381.57 kPa). For the same molecule, the Viscosity was 0.3242 cp (crude oil with 64.9 wt % (80 mol %) 3-pentanone, 3446.55 kPa); 0.3221 cp (crude oil with 64.9 wt % (80 mol %) 3-pentanone, 6893.45 kPa); 0.3205 cp (crude oil with 64.9 wt % (80 mol %) 3-pentanone, 10340.41 kPa). Moreover, the oil viscosity reduction (oil diluted by 18.6 wt % (33 mol %) 3-pentanone) amounted to 21%.
